Experimental data: EP1803452A1, “ESTER DERIVATIVE AND PHARMACEUTICAL USE THEREOF” (Japan Tobacco, Inc., priority 2004, dated 2006)

Key:
[1] = Stability test in buffer (pH 7.4); assay type: physicochemical; settings: phosphate buffer/acetonitrile 7:3, 100 mM potassium phosphate buffer (pH 7.4) and acetonitrile 7:3 (v/v), LC/MS; for remaining at 10 min: 10 minutes at 37°C, read-out: Buf. remaining rate (%/10min); for remaining at 1 h: 60 minutes at 37°C, read-out: Buf. remaining rate (%/60min)
Outline: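 Compound from DMSO solution incubated at 37°C in 100 mM potassium phosphate buffer/acetonitrile 7:3 (v/v) for 0, 10 and 60 min, then quenched with acetonitrile containing formic acid (final 0.1%). Unchanged compound in supernatant quantified by LC/MS; remaining rate (%) = amount at each time / amount at zero time × 100.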

[2] = biological target: T1, Microsomal triglyceride transfer protein (MTP) from human small intestine microsome (Homo sapiens, UniProt P55157); experiment: Inhibition test of interliposomal triglyceride (TG) transfer activity by MTP; assay type: biochemical; settings: purified MTP from human small intestine microsome, 14C-triolein donor/acceptor liposomes, 37 °C for 1.5 hours
T1 construct: Human small intestine microsome was dialyzed against 10 mM phosphate buffer; tissue Tissue Transforming Technologies, Inc; host or cells: Human small intestine microsomes, dialysed, centrifuged, and the supernatant purified on DEAE Sepharose (FPLC)
Text: Firstly, in order to prepare the donor, there were volatilized under a stream of nitrogen gas a phosphatidylcholine solution containing phosphatidylcholine labeled with ^3H, a cardiolipin solution, and a triolein solution containing triolein labeled with ^14C (each solution had been already dissolved in an appropriate organic solvent), or in order to prepare the acceptor, there were volatilized under nitrogen flow a phosphatidylcholine solution containing phosphatidylcholine labeled with ^3H and a cardiolipin solution (each solution had been already dissolved in an appropriate organic solvent). An appropriate amount of a reaction buffer (15 mM Tris-HCl buffer containing 1 mM EDTA.Na2, 40 mM NaCl, and 0.5% (w/v) bovine serum albumin, pH 7.4) was added thereto to be emulsified. […] Each of the resulting supernatant was used for donor or acceptor.
Each radioactivity in the acceptor and the donor was measured by liquid scintillation counter, and a mixed solution of the acceptor and the donor was prepared with a reaction buffer so as to be a donor-derived radioactivity of 16,000 dpm/400 µL and a acceptor-derived radioactivity of 4,000 dpm/400 µL. 400 µL of the mixed solution of the donor and the acceptor, 45 µL of the reaction buffer, 50 µL of MTP (20 µg/mL), and 5 µL of a sample dissolved in DMSO (dimethyl sulfoxide) or 5 µL of DMSO was mixed (total amount: 500 µL). The mixture was incubated at 37 °C for 1.5 hours. […] The radioactivity in the acceptor was measured by liquid scintillation counter. The value obtained by subtracting the radioactivity in a blank group from the radioactivity in the acceptor of a DMSO group was determined as MTP-mediated TG transfer activity, and it was compared with the value obtained by subtracting the radioactivity in the blank group from the radioactivity in a sample group. […] Inhibition rate (%) was calculated from values obtained according to the following equation. Inhibition rate(%) = (1 minus ((radioactivity of sample group minus radioactivity of blank group)/(radioactivity of DMSO group minus radioactivity of blank group))) × 100.

[3] = Metabolic stability test in plasma; assay type: in vitro ADME, human; settings: LC/MS; for remaining at 10 min: unchanged form after 10 minutes at 37°C in human plasma, read-out: Remaining rate in human plasma (%/10min); for remaining at 1 h: unchanged form after 60 minutes at 37°C in human plasma, read-out: Remaining rate in human plasma (%/60min)
Outline: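 Compound in DMSO spiked into human, mouse or hamster plasma, incubated at 37°C for 0, 10 and 60 minutes, then quenched with acetonitrile/formic acid (final 0.1%). Unchanged compound in supernatant quantified by LC/MS; remaining rate (%) relative to time zero.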

[4] = Metabolic stability test in liver S9; assay type: in vitro ADME; settings: pH 7.4, human liver S9 2 mg protein/mL, LC/MS; for remaining at 10 min: unchanged form after 10 minutes at 37°C, read-out: Remaining rate in human liver S9 (%/10min); for remaining at 1 h: unchanged form after 60 minutes at 37°C, read-out: Remaining rate in human liver S9 (%/60min)
Outline: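 Compound from DMSO solution was incubated at 37°C with human liver S9 (final 2 mg protein/mL) in 100 mM potassium phosphate pH 7.4 with an NADPH-regenerating system for 0, 10 and 60 minutes. Reactions were stopped with acetonitrile/0.1% formic acid. Unchanged compound was measured by LC/MS as remaining rate (%) relative to zero time.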

T1 sequence (P55157 19-894): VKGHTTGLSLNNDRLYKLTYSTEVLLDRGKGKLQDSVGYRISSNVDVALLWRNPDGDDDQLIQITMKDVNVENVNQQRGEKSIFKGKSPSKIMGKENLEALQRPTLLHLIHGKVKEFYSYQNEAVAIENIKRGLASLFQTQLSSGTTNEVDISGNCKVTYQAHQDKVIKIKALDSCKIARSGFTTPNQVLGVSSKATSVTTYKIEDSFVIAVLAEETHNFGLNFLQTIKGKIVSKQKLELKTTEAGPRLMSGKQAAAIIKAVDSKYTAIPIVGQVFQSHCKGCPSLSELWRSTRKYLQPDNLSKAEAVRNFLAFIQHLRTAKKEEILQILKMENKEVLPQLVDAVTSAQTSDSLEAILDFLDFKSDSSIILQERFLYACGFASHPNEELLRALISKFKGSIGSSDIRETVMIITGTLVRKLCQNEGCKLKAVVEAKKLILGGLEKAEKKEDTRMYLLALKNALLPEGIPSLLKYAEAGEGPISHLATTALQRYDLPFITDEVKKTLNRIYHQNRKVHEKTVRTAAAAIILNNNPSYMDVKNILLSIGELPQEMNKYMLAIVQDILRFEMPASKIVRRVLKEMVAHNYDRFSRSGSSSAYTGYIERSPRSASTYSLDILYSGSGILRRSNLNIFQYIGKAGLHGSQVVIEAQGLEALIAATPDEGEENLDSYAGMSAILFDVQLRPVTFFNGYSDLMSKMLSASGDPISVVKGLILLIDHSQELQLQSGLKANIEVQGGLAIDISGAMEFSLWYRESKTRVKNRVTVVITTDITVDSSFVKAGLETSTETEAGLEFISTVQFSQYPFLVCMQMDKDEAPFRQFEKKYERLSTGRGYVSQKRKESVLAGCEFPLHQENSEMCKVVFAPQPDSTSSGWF
T1 sequence (P07237 18-508 partner): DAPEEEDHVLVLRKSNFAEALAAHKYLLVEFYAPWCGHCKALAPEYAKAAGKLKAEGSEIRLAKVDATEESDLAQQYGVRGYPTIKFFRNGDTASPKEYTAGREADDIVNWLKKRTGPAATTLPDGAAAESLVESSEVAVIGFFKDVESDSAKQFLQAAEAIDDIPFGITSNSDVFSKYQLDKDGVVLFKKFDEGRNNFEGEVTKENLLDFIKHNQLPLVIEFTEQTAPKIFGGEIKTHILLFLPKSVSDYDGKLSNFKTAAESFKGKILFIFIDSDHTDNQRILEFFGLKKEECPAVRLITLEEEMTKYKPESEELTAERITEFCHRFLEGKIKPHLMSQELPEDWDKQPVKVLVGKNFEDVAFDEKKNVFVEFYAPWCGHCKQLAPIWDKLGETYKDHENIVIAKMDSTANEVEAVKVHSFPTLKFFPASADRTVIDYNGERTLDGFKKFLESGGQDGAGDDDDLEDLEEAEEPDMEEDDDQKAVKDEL

remaining at 10 min [1]	remaining at 1 h [1]	Human intestine MTP (IC50(nM)) [2]	remaining at 10 min [3]	remaining at 1 h [3]	remaining at 10 min [4]	remaining at 1 h [4]	SMILES
101%	104%	+ ++	0%	0%	0%	0%	COC(=O)c1ccc(OC(=O)CCCc2ccc(NC(=O)c3ccc(C)nc3-c3ccc(C(F)(F)F)cc3)c(C(=O)N(C)C)c2)c(C(=O)OC)c1 [Compound 1-70, 4-[4-(3-dimethylcarbamoyl-4-{[6-methyl-2-(4-trifluoromethylphenyl)pyridine-3-carbonyl]amino}phenyl)butyryloxy]isophthalic acid dimethyl ester]
98%	98%		89%	17%	25%	5%	CN(C)C(=O)c1cc(CCCC(=O)Oc2ccc(C(=O)OC3CCCc4ccccc43)cc2)ccc1NC(=O)c1ccccc1-c1ccc(C(F)(F)F)cc1 (centres unmarked) [Compound 1-108, 4-[4-(3-dimethylcarbamoyl-4-{(4'-trifluoromethylbiphenyl-2-carbonyl)amino}phenyl)butyryloxy]benzoic acid 1,2,3,4-tetrahydronaphthalen-1-yl ester]
99%	102%		41%	9%	0%	0%	Cc1ccc(C(=O)Nc2ccc(CCCC(=O)Oc3ccc(C(=O)OCc4cccnc4)cc3)cc2C(=O)N(C)C)c(-c2ccc(C(F)(F)F)cc2)n1 [Compound 1-94, 4-[4-(3-dimethylcarbamoyl-4-{[6-methyl-2-(4-trifluoromethylphenyl)pyridine-3-carbonyl]amino}phenyl)butyryloxy]benzoic acid pyridin-3-ylmethyl ester]
102%	101%		39%	0%	0%	0%	CCC(=O)c1ccc(OC(=O)CCCc2ccc(NC(=O)c3ccccc3-c3ccc(C(F)(F)F)cc3)c(C(=O)N(C)C)c2)cc1 [Compound 1-88, 4-(3-dimethylcarbamoyl-4-{(4'-trifluoromethylbiphenyl-2-carbonyl)amino}phenyl)butyric acid 4-propionylphenyl ester]
100%	103%		17%	0%	0%	0%	CN(C)C(=O)c1cc(CCCC(=O)Oc2ccc(C(=O)OCc3ccccn3)cc2)ccc1NC(=O)c1ccccc1-c1ccc(C(F)(F)F)cc1 [Compound 1-82, 4-[4-(3-dimethylcarbamoyl-4-{(4'-trifluoromethylbiphenyl-2-carbonyl)amino}phenyl)butyryloxy]benzoic acid pyridin-2-ylmethyl ester]
103%	102%		82%	29%	0%	0%	CN(C)C(=O)c1cc(CCCC(=O)Oc2ccc(-c3nnn(C)n3)cc2)ccc1NC(=O)c1ccccc1-c1ccc(C(F)(F)F)cc1 [Compound 1-95, 4-(3-dimethylcarbamoyl-4-{(4'-trifluoromethylbiphenyl-2-carbonyl)amino}phenyl)butyric acid 4-(2-methyl-2H-tetrazol-5-yl)phenyl ester]
100%	109%		0%	0%	15%	7%	COc1ccc(COC(=O)c2ccc(OC(=O)CCCc3ccc(NC(=O)c4ccccc4-c4ccc(C(F)(F)F)cc4)c(C(=O)N(C)C)c3)cc2)cc1 [Compound 1-96, 4-[4-(3-dimethylcarbamoyl-4-{(4'-trifluoromethylbiphenyl-2-carbonyl)amino}phenyl)butyryloxy]benzoic acid 4-methoxybenzyl ester]
99%	99%		50%	3%	0%	0%	CC(=O)N1CCC(OC(=O)c2ccc(OC(=O)CCCc3ccc(NC(=O)c4ccccc4-c4ccc(C(F)(F)F)cc4)c(C(=O)N(C)C)c3)cc2)CC1 [Compound 1-109, 4-[4-(3-dimethylcarbamoyl-4-{(4'-trifluoromethylbiphenyl-2-carbonyl)amino}phenyl)butyryloxy]benzoic acid 1-acetylpiperidin-4-yl ester]

More lines, now with the values behind:

SMILES	remaining at 10 min [1]	remaining at 1 h [1]	Human intestine MTP (IC50(nM)) [2]	remaining at 10 min [3]	remaining at 1 h [3]	remaining at 10 min [4]	remaining at 1 h [4]
COC(=O)c1ccc(OC(=O)CCCc2ccc(NC(=O)c3ccc(C)cc3-c3ccc(C(F)(F)F)cc3)c(C(=O)N(C)C)c2)cc1 [Compound 1-9, 4-(4-{3-dimethylcarbamoyl-4-[(5-methyl-4'-trifluoromethylbiphenyl-2-carbonyl)amino]phenyl}butyryloxy) benzoic acid methyl ester]	94%	97%	++ +	34%	0%	0%	0%
COC(=O)c1ccc(OC(=O)CCCc2ccc(NC(=O)c3ccccc3-c3ccc(C(F)(F)F)cc3)c(C(=O)N(C)C)c2)cc1C [Compound 1-14, 4-(4-{3-dimethylcarbamoyl-4-[(4'-trifluoromethylbiphenyl-2-carbonyl)amino]phenyl}butyryloxy)-2-methyl benzoic acid methyl ester]	101%	104%		43%	0%	2%	0%
COC(=O)c1cc(C)c(OC(=O)CCCc2ccc(NC(=O)c3ccc(C)nc3-c3ccc(C(F)(F)F)cc3)c(C(=O)N(C)C)c2)c(Cl)c1 [Compound 1-35, 3-chloro-4-[4-(3-dimethylcarbamoyl-4-{[6-methyl-2-(4-trifluoromethylphenyl)pyridine-3-carbonyl]amino}phenyl)butyryloxy]-5-methylbenzoic acid methyl ester]	100%	105%		43%	0%	5%	0%
CCc1cc(C(=O)OC)cc(C(=O)OC)c1OC(=O)CCCc1ccc(NC(=O)c2ccc(C)nc2-c2ccc(C(F)(F)F)cc2)c(C(=O)N(C)C)c1 [Compound 1-51, 4-[4-(3-dimethylcarbamoyl-4-([6-methyl-2-(4-trifluoromethylphenyl)pyridine-3-carbonyl]amino}phenyl)butyryloxy]-5-ethylisophthalic acid dimethyl ester]	98%	101%		23%	0%	8%	3%
CN(C)C(=O)c1cc(CCCC(=O)Oc2ccc(C#N)cc2)ccc1NC(=O)c1ccccc1-c1ccc(C(F)(F)F)cc1 [Compound 1-23, 4-{3-dimethylcarbamoyl-4-[(4'-trifluoromethylbiphenyl-2-carbonyl)amino]phenyl}butyric acid 4-cyanophenyl ester]	99%	99%		21%	0%	0%	0%
COC(=O)c1ccc(OC(=O)CCc2ccc(NC(=O)c3ccccc3-c3ccc(C(F)(F)F)cc3)c(C(=O)N(C)C)c2)cc1 [Compound 1-27, 4-(3-{3-dimethylcarbamoyl-4-[(4'-trifluoromethylbiphenyl-2-carbonyl)amino]phenyl}propionyloxy)benzoic acid methyl ester]	97%	102%		10%	0%	0%	0%
COC(=O)c1cc(C)c(OC(=O)CCCc2ccc(NC(=O)c3ccc(C)nc3-c3ccc(C(F)(F)F)cc3)c(C(=O)N(C)C)c2)c(F)c1 [Compound 1-41, 4-[4-(3-dimethylcarbamoyl-4-{[6-methyl-2-(4-trifluoromethylphenyl)pyridine-3-carbonyl]amino}phenyl)butyryloxy]-3-fluoro-5-methylbenzoic acid methyl ester]	103%	106%		37%	0%	4%	0%
